Where two headings read alike, the source gives them in different places.
Key:
Lactobacillus plantarum = assay: Minimal Inhibitory Concentration (MIC), two-fold dilution series in 96 well microplate; assay type: cell-based; settings: for MIC: Lactiplantibacillus plantarum
Method: This is the lowest concentration of a substance or substances which can achieve complete inhibition of growth.
In order to determine the Minimal Inhibitory Concentration, a two-fold dilution series of the antimicrobial is constructed with the dilutions being made in growth media. The dilutions are made in a 96 well microplate such that each well has a final volume of 280 μl of media and antimicrobial. […] After the dilution series is constructed the wells receive an inoculum of microbe suspended in growth media such that the final concentration of microbes in the well is i˜5×10^5 cfu/ml. In these examples the test microbe used is Lactobacillus plantarum. The cultures are incubated at 37° C. for 18-24 hours, and the wells scored as positive or negative for growth based on a visual examination for turbid wells, with turbidity being an indicator of growth.
Minimal inhibitory concentrations were determined for both citric acid and hops acid at pH 6 using the protocol described above with Lactobacillus plantarum as the test microbe. Checkerboard synergy plates were constructed as described, the wells inoculated to a final concentration of ˜5×10^5 cfu/ml, incubated for 18-24 hours, and then scored visually for growth/no growth.
Minimal inhibitory concentrations were determined for both benzoic acid and hops acid at pH 6 using the protocol described above with Lactobacillus plantarum as the test microbe. Checkerboard synergy plates were constructed as described, the wells inoculated to a final concentration of ˜5×10^5 cfu/ml, incubated for 18-24 hours, and then scored visually for growth/no growth.

Weisella confusa = settings: cited from earlier work
fermentation = settings: cited from earlier work

**Q.** With `O=C(O)c1ccccc1` [Benzoic Acid, benzoic acid] as the compound, how does the MIC (Lactobacillus plantarum; pH 6, read-out: Benzoic Acid MIC (QA) used alone) read?
**A.** Its MIC is 100 mg/mL.

**Q.** Which MIC (Lactobacillus plantarum; pH 6, 37° C., 18-24 hours, complete inhibition of growth, read-out: Citric Acid MIC (QA) used alone) does the source give for `O=C(O)CC(O)(CC(=O)O)C(=O)O` [Citric Acid, citric acid] here?
**A.** The MIC was 100 mg/mL.

**Q.** And the “Citric Acid MIC (QA) used alone” value (Lactobacillus plantarum; pH 6, 37° C., 18-24 hours, complete inhibition of growth)?
**A.** The value was 100000 ppm.

**Q.** For Virginiamycin, which “concentration required to inhibit growth of Weisella confusa” value (Weisella confusa) is on record?
**A.** Its value is “over 25 mg/L”.

**Q.** What about the “concentration that will suppress fermentation” value (fermentation) of the same compound?
**A.** The value was “over 2 mg/L”.
